The values below come from US8795977B2, “Method for screening a potential modulator compound of a taste receptor” (Conopco, Inc., priority 2009, dated 2014).

The test system of the test is Control cells (no T1R1/T1R3). The test can be described thus: Calcium-based receptor assay in control cells not expressing the receptor. The test is classed as cell-based, human. The settings on record: change in fluorescence (ΔF). From the text:
We developed a unique functional umami receptor assay to evaluate and quantify umami in tomato and other crude plant or food extracts using the BRET technique: to test the principle we used the donor and acceptor proteins relating to BRET-2. In short, the human T1R1 and T1R3 taste receptors were cloned and fused with Renilla luciferase (Rluc) as donor protein; green fluorescent protein-2 (GFP2) served as acceptor protein and was fused to β-arrestin-2. Both constructs were transfected into a HEK293 cell line cells) for heterologous expression of the proteins. Various mammalian cell lines have been reported to be highly suitable for expression of receptors or other proteins, with HEK293 (human embryonic kidney) cells and CHO (Chinese hamster ovary) cells being some of the most versatile and suitable ones^12. Similarly, GPCRs can be expressed in various ways as described in multiple publications, such as transient^6, 8, 13-15 or stable (constitutive or inducible)^6, 9, 16, 17 expression, depending on the nature of the experiment, the respective receptor or the available time. Upon receptor stimulation with an agonist or crude extracts, the β-arrestin-2/GFP-2 protein interacts with the activated receptor thus bringing GFP-2 in close proximity with luciferase, making energy transfer between these two proteins possible and generating a BRET signal. In the presence of oxygen the luciferase catalyses the transformation of the substrate DeepBlueC into coelenteramide, which can be measured at 395-410 nm. If GFP-2 is in close proximity to the luciferase and energy transfer takes place, the emission will shift to 510 nm; this is referred to as the BRET signal and is expressed as ratio between the acceptor (GFP-2) and the donor (Renilla luciferase). The following experiments are designed to illustrate that conventional calcium-based functional receptor assays are not suitable for measuring the effects of crude extracts; in contrast, the BRET assay (as indicated here with umami) can clearly measure specific receptor responses using crude natural extracts. Moreover, the assay is also sensitive enough for detecting differences of receptor activation between the different tomato samples. Materials & Methods: Chemicals and Media: Fluo-4 AM was from Molecular Probes (# F-14202, prepared as 5 mM stock in DMSO), DMEM (with 4.5 g/l glucose and ultraglutamine, # BE12-604F) was from Lonza, trypsin-EDTA, Lipofectamine 2000, OptiMem and FCS were obtained from Life Technologies Invitrogen. Monosodium glutamate (MSG), Inosine 5′-monophosphate as well as all other chemicals were from Sigma-Aldrich. The plasmid encoding GFP2-β-arrestin-2 was purchased from BioSignal Packard (#6310176). Coelenterazine 400A (a DeepBlueC derivative) and Coelenterazine-H were from VWR International (# BTIU10125-1 and 233903-50, respectively). All other cell culture supplies were from Greiner BioOne. Receptor Fusion Constructs, Cell Lines, and Media: The human T1R1 and human T1R3 umami receptors were fused at their C-terminal in frame to Renilla Luciferase (Rluc) using standard molecular cloning techniques and the codon-humanized pRluc-N3 vector from PerkinElmer (#6310220). For expression of the umami receptors and the construct encoding GFP-2/β-arrestin-2, HEK293 cells (human embryonic kidney cells, ATCC) were used using traditional transfection methods (see also below). HEK293 cells were maintained in DMEM and 10% FBS at 37° C./5% CO2. Tomato Extracts: The tomato extracts which served as representative natural, complex test material were prepared as follows: Frozen tomato samples (in −80° C.) were weighed and dissolved in an equal amount of water. After the seeds and locular tissues (pulp) were removed and put aside, the tomato pericarp (flesh) was ground using a mortar and pestle. The seeds and pulp were then added back to the mixture ensuring that they are well mixed and the seeds were not crushed. […]

Turning to `N[C@@H](CCC(=O)O)C(=O)[O-].[Na+]` [MSG, Monosodium glutamate], for the setting “100 μM MSG”, the “release of intracellular calcium, Control cells (no T1R1/T1R3), average” value worked out at 1135; the “release of intracellular calcium, Control cells (no T1R1/T1R3), meas. 1” value was found to be 1102; the “release of intracellular calcium, Control cells (no T1R1/T1R3), meas. 2” value is listed as 1168. Under “1 mM MSG”, the “release of intracellular calcium, Control cells (no T1R1/T1R3), average” value amounted to 1060; the “release of intracellular calcium, Control cells (no T1R1/T1R3), meas. 1” value amounted to 1100; the “release of intracellular calcium, Control cells (no T1R1/T1R3), meas. 2” value was found to be 1020. In addition, for the setting “10 mM MSG”, the “release of intracellular calcium, Control cells (no T1R1/T1R3), average” value worked out at 1115; the “release of intracellular calcium, Control cells (no T1R1/T1R3), meas. 1” value came out at 1200; the “release of intracellular calcium, Control cells (no T1R1/T1R3), meas. 2” value turned out to be 1030.
